From article PMC4809498, “Artonin E Induces Apoptosis via Mitochondrial Dysregulation in SKOV-3 Ovarian Cancer Cells” (PLoS ONE, 2016)
In brackets after ≈: the same amount, converted by molar mass.

What was measured:
SKOV-3 cells [1] = test: Clonogenic assay; assay type: cell-based, human; details: three weeks incubation
Protocol: The SKOV-3 cells were trypsinized, centrifuged, and supplemented with fresh media. The cells were immediately counted and seeded (300 cells/plate) in a 60 mm Petridish, and left overnight to attach. The attached cells were treated with 0, 1, 5, 10, 15, and 20 μg/mL of artonin E for 24 h. Following incubation, the treated media were removed and fresh media were added. The cells were incubated for three weeks to form colonies. Surviving colonies were fixed with 90% ethanol and stained with crystal violet.

SKOV-3 cells [2] = test: Intracellular ROS generation (DCFH-DA); assay type: cell-based, human; details: SKOV-3, 8 μg/mL
Protocol: 2′,7′-Dichlorofluorescin diacetate (DCFH-DA) was used to examine the production of intracellular reactive oxygen species in SKOV-3 cells treated with artonin E. The SKOV-3 cells were seeded in the 96-well black plate and incubated overnight to attach. The cells were then treated with 8 μg/mL of artonin E for 24, 48, and 72 h. Hank’s balanced salt solution without serum was used to wash the cells. Then, 100 μL of DCFH-DA solution was added to each designated well, and the plate was incubated at 37°C for 30 min. The results were analyzed using a fluorescence microplate reader (Tecan Infinite M 200 PRO, Männedorf, Switzerland) at 485 nm excitation and 520 nm emission.

Bax = test: Western blot, Bax; assay type: cell-based, human; details: SKOV-3, 8 μg/mL, time-dependent
Protocol: (§1) SKOV-3 cells were plated in a 75cm^2 culture flask and exposed to artonin E for 24, 48, and 72 h. Lysis buffer (50 mM Tris–HCl, pH 8.0; 120 mM NaCl, 0.5% NP-40; and 1 mM PMSF) was used to extract the total protein. Protein concentration was determined using a BCA protein assay reagent kit (Bio-Rad, USA). Equal amounts of protein (40 μg) extract were subjected to SDS-PAGE and electroblotted onto a polyvinylidenedifluoride membrane (Bio-Rad). Blots were then blocked with 5% non-fat milk in TBS-Tween buffer 7 (0.12 M Tris-base, 1.5 M NaCl, and 0.1% Tween 20) for 1 h at room temperature. After incubating with the appropriate primary antibody overnight at 4°C, the blots were washed and then incubated with horseradish peroxidase conjugated secondary antibody for 1 h at room temperature. The protein bands were detected using pico or femto chemiluminescence (ECL system) and visualized using a UV gel documentation system. The subsequent primary antibodies, which include those for β-actin (1:10,000), Bax (1:10,000), Bcl-2 (1:10,000), HSP-70 (1:10,000), survivin (1:10,000),caspase -3 (1:10,000), caspase -8 (1:10,000), caspase -9 (1;10,000) and cytochrome c (1:200) were purchased from Abcam, Cambridge, United Kingdom.

SKOV-3 cells [3] = test: Cell cycle analysis by flow cytometry; assay type: cell-based, human; details: SKOV-3, 8 μg/mL, 72 h after treatment
Protocol: SKOV-3 cells at a concentration of 5×10^5 cells were plated into a T75cm^2 flask and incubated overnight to allow attachment. The attached cells were treated with 8 μg/mL of artonin E at different time points. After treatment, the cells were trypsinized and centrifuged at 1,500 rpm for 10 min. The fresh pellets were washed twice with PBS, fixed with 500 μL of 70% cold ethanol, and incubated at −20°C overnight. The remaining ethanol was then removed and the cells were resuspended in PBS containing 20 μL of RNase A (10 μg/mL) and 2 μL of PI (2.5 μg/mL). The resulting mixture was incubated for 30 min at 37°C in the dark. Samples were immediately analyzed using FACS Canto 11 Becton-Dickinson flow cytometry. For each sample, 10,000 cells were measured. ModFit LT software (Verity Software House, Topsham, ME) was used to analyze the percentage of cells at different phases.

CHO cells = test: MTT cell viability assay, CHO; assay type: cell-based, Chinese hamster; details: Cricetulus griseus, 24 h treatment
Protocol: Metastatic ovarian adenocarcinoma (SKOV-3) and normal Chinese hamster ovary (CHO) cell lines were originally obtained from the American Type Culture Collection (ATCC; Manassas, VA). SKOV-3 cells were cultured in McCoy’s 5A medium and CHO cells were cultured in F12K medium. A human periodontal ligament fibroblast cell line was purchased from Lonza, USA and maintained in stroma cell basal medium. T1074 (normal immortalized human ovarian surface epithelial cell line) was originally purchased from Applied Biological Materials (abm®) Canada and cultured in Prigrow 1 medium.
The inhibitory effects of artonin E and two positive controls paclitaxel and carboplatin were examined by MTT assay. Cells at a density of 5×10^3cells/well were placed in a 96-well plate and left for 24 h to attach. The attached cells were exposed to artonin E, paclitaxel, and carboplatin at different concentrations and incubated for 24, 48, and 72 h. Subsequently, 20 μL of 5 mg/mL MTT solution was added after drug treatment and the resulting mixture was incubated for 4 h to form purple formazan. Afterward, 100 μL of dimethyl sulfoxide (DMSO) was transferred into each well to dissolve the purple formazan, and results were measured using a microplate reader (Tecan Infinite M 200 PRO, Männedorf, Switzerland) at an absorbance of 570 nm. […]

SKOV-3 cells [4] = test: DNA fragmentation (laddering) assay; assay type: cell-based, human; details: SKOV-3, 8 μg/mL, 24, 48, 72 h, 1.5% agarose gel
Protocol: SKOV-3 cells were treated with artonin E at different time points, and harvested by adding trypsin to promote detachment. The detached cells were spun down and washed two times with cold PBS. The DNA from cells in the suspension was extracted using the suicide Track^TM DNA ladder isolation kit (Calbiochem, EMD Bioscience, Germany). The cells were then lysed by mixing 55 μL of TE (Tris and EDTA) lysis buffer and 20 μL of enzyme A (RNase A). The resulting mixture was incubated at 37°C for 1 h. Subsequently, 25 μL of enzyme B (proteinase K) was added and the lysate was kept in a water bath at 50°C overnight. Following incubation, 2 μL of Pellet Paint, 60 μL of 3M sodium acetate, and 662 μL of 2-propanol were added to the lysate, and the solution was briefly mixed by inversion and incubated at room temperature for 2 min. The DNA was then precipitated by centrifugation of the samples at 16,000×g for 5 min. The supernatant was removed and the fresh pellets were rinsed two times with 70% and 100% ice-cold ethanol. The pellets were air dried at room temperature for a few minutes to discard the ethanol and resuspended with 50 μL of DNA resuspension buffer. The prepared DNA ladder samples were loaded onto a 1.5% gel electrophoresis set up and run at 50 constant volts for 3 h. […]

caspase-3 = test: Western blot, caspase-3; assay type: cell-based, human; details: SKOV-3, 8 μg/mL, as early as 24 h
Protocol: as §1

With `CC(C)=CCc1c(-c2cc(O)c(O)cc2O)oc2c3c(cc(O)c2c1=O)OC(C)(C)C=C3` [Artonin E, artonin E] the colony formation (SKOV-3 cells [1]; SKOV-3, 5 μg/mL for 24 h) was “almost half of the colonies were reduced”, the colony formation (SKOV-3 cells [1]; SKOV-3, 10 μg/mL for 24 h) was “decreasing sharply” and the colony formation (SKOV-3 cells [1]; SKOV-3, 15 and 20 μg/mL for 24 h) was “No colonies were formed”. For the same molecule, the “increase in the formation of ROS compared with untreated cells” value (SKOV-3 cells [2]; 24 and 48 h after treatment) was “twofold”, the ROS induction (SKOV-3 cells [2]; 72 h after treatment) was “slightly decreased” and the “expression of Bax” value (Bax) was “upregulates”. For the same molecule, the “accumulation of cells arrested at the S phase” value (SKOV-3 cells [3]) was “significantly (p<0.05) increased”, the IC50 (CHO cells) was 57.6 ± 2 µg/mL (≈ 132 µM) and the “DNA fragmentation (ladder pattern)” value (SKOV-3 cells [4]) was “distinctly observed”. For the same molecule, the “protein expression level of caspase-3” value (caspase-3) was “significantly (p<0.05) up-regulated”.
